Results from publication PMC7930822, “Phase I Trial to Evaluate the Tolerance, Pharmacokinetics and Efficacy of the Broad-Spectrum ErbB Family Inhibitor Larotinib Mesylate in Patients With Advanced Solid Tumors” (Frontiers in Pharmacology, 2021).
Structures can show the parent of a compound that is named as a salt. Where two headings read alike, the source gives them in different places.

Assay: phase I plasma pharmacokinetics (non-compartmental, LC-MS/MS)
Assay type: in vivo, human
Conditions: for AUC(0-t) / AUC(0-inf) / Cmax / half-life / Tmax / Vd/F: human, plasma, po
Method: This was a phase I, single-center, open-label, dose-escalation study conducted at First Hospital of Jilin University, China (registration no.: ChiCTR-OPC-15007153 registered at http://www.chictr.org.cn). Larotinib mesylate hard capsules were produced and supplied by Sunshine Lake Pharma Co., Ltd (Guangdong Province, China) in different unit doses of […] under GMP condition. Seven dose levels were designed in the study: 50, 100, 150, 220, 300, 350, and 400 mg with administration stages labeled cycle 0, cycle 1, and subsequent treatment cycles. Patients received an oral single dose of larotinib mesylate after fasting during a 6-days cycle 0 to evaluate the tolerance and pharmacokinetic characteristics. After cycle 0, larotinib mesylate was continuously administered once daily for 28 days in cycle 1, and the tolerance and pharmacokinetic characteristics of multiple doses were evaluated (Figure 2). The patients who […] disease control (complete response [CR], partial response [PR], or stable disease [SD]) at the end of cycle one were permitted to participate in the subsequent 28-days treatment cycles until progressive disease (PD) or intolerance was observed.
Blood samples (4 ml) for pharmacokinetic analyses were collected in tubes containing K2EDTA anticoagulant. Blood samples were centrifuged at 3,000 rpm for 10 min at 4°C and stored at –80°C until liquid chromatography-mass spectrophotometry (LC-MS/MS) analysis. Urine and fecal samples were collected only when patients were given the150-mg and 220-mg dose levels at sampling time intervals of 0–4, 4–8, 8–12, 12–24, 24–48, 48–72, 72–96 and 96–120 h in cycle 0.
Linear mixed effects model was used to explore the dose exposure relationships. Dose proportionality was concluded if the 95% confidence interval (CI) of the linear regression slope was completely contained within the decision interval (1 + ln (0.8)/ln (8)∼1 + ln (1.25)/ln (8)). For urine and fecal data, the accumulative excretion rates of larotinib and M5 were calculated.
Bioanalysis was performed at Frontage Company (Shanghai, China). Validated high-performance LC-MS/MS method was used to quantify the concentrations of larotinib and M5 in plasma, urine and feces samples. Protein precipitation was employed for plasma, urine and feces processing. Plasma larotinib and M5 concentrations were determined using appropriate calibration curves obtained from standards in the range of 0.5–1,000 ng/ml. The interassay precision of the analysis method were 4.2–5.4% for larotinib and 3.9–4.3% for M5. The interassay accuracy of the analysis method were 100.4–103.4% for larotinib and 102.2–102.9% for M5, respectively.
Statistical analyses were performed using SAS software, version 9.2 (SAS Institute Inc., United States). Descriptive statistics were used to summarize continuous variables as cases, means with standard deviations (SDs), medians, quartiles, maximums and minimums. For categorical variables, frequencies and percentages were used. A linear mixed effects model, relating log-transformed Cmax and AUC parameters to log-transformed dose, was used to investigate dose proportionality.

Question: Which linearity of pharmacokinetics (50–400 mg) does the source give for COc1cc2ncnc(Nc3ccc(F)c(Cl)c3)c2cc1OCCCN1C[C@@H]2OCCO[C@@H]2C1 [larotinib mesylate] here?
Answer: No clear linear pharmacokinetic characteristic

Question: And the “time to steady state” value (continuous once daily administration)?
Answer: 8 days

Question: What about the AUC(0-t) (50 mg, multiple oral administration, 50 mg larotinib mesylate, steady state, read-out: AUC0-t,ss, mean (min–max)) of the same compound?
Answer: 3570 ng·h/mL

Question: What about the AUC(0-inf) (50 mg, multiple oral administration, 50 mg larotinib mesylate, steady state, read-out: AUC0-∞,ss, mean (min–max)) of the same compound?
Answer: 4920 ng·h/mL

Question: What about the Cmax (50 mg, multiple oral administration, 50 mg larotinib mesylate, steady state, read-out: Cmax,ss, mean (min–max)) of the same compound?
Answer: 67.5 ng/mL

Question: What about the half-life (50 mg, multiple oral administration, 50 mg larotinib mesylate, steady state, read-out: T1/2,ss, mean (min–max) (converted)) of the same compound?
Answer: 61.2 h

Question: And the Tmax (50 mg, multiple oral administration, 50 mg larotinib mesylate, steady state, read-out: Tmax,ss, median (min–max))?
Answer: 5 h

Question: And the Vd/F (50 mg, multiple oral administration, 50 mg larotinib mesylate, steady state, read-out: Vz/F,ss, mean (min–max))?
Answer: 921 L

Question: And the AUC(0-t) (50 mg, single oral administration, 50 mg larotinib mesylate, read-out: AUC0-24, mean (min–max))?
Answer: 245 ng·h/mL

Question: And the AUC(0-t) (50 mg, single oral administration, 50 mg larotinib mesylate, read-out: AUC0-t, mean (min–max))?
Answer: 635 ng·h/mL

Question: What about the AUC(0-inf) (50 mg, single oral administration, 50 mg larotinib mesylate, read-out: AUC0-∞, mean (min–max)) of the same compound?
Answer: 817 ng·h/mL

Question: What about the Cmax (50 mg, single oral administration, 50 mg larotinib mesylate, read-out: Cmax, mean (min–max)) of the same compound?
Answer: 17.4 ng/mL

Question: And the half-life (50 mg, single oral administration, 50 mg larotinib mesylate, read-out: T1/2, mean (min–max) (converted))?
Answer: 56.7 h

Question: And the Tmax (50 mg, single oral administration, 50 mg larotinib mesylate, read-out: Tmax, median (min–max))?
Answer: 6 h

Question: And the Vd/F (50 mg, single oral administration, 50 mg larotinib mesylate, read-out: Vz/F, mean (min–max))?
Answer: 5070 L

Question: And the AUC(0-t) (100 mg, multiple oral administration, 100 mg larotinib mesylate, steady state, read-out: AUC0-t,ss, mean (min–max))?
Answer: 4480 ng·h/mL

Question: And the AUC(0-inf) (100 mg, multiple oral administration, 100 mg larotinib mesylate, steady state, read-out: AUC0-∞,ss, mean (min–max))?
Answer: 5200 ng·h/mL

Question: And the Cmax (100 mg, multiple oral administration, 100 mg larotinib mesylate, steady state, read-out: Cmax,ss, mean (min–max))?
Answer: 131 ng/mL

Question: What about the half-life (100 mg, multiple oral administration, 100 mg larotinib mesylate, steady state, read-out: T1/2,ss, mean (min–max) (converted)) of the same compound?
Answer: 44.8 h

Question: What about the Tmax (100 mg, multiple oral administration, 100 mg larotinib mesylate, steady state, read-out: Tmax,ss, median (min–max)) of the same compound?
Answer: 5 h

Question: And the Vd/F (100 mg, multiple oral administration, 100 mg larotinib mesylate, steady state, read-out: Vz/F,ss, mean (min–max))?
Answer: 1400 L

Question: And the AUC(0-t) (100 mg, single oral administration, 100 mg larotinib mesylate, read-out: AUC0-24, mean (min–max))?
Answer: 653 ng·h/mL

Question: What about the AUC(0-t) (100 mg, single oral administration, 100 mg larotinib mesylate, read-out: AUC0-t, mean (min–max)) of the same compound?
Answer: 1240 ng·h/mL

Question: And the AUC(0-inf) (100 mg, single oral administration, 100 mg larotinib mesylate, read-out: AUC0-∞, mean (min–max))?
Answer: 1390 ng·h/mL

Question: What about the Cmax (100 mg, single oral administration, 100 mg larotinib mesylate, read-out: Cmax, mean (min–max)) of the same compound?
Answer: 64.1 ng/mL

Question: What about the half-life (100 mg, single oral administration, 100 mg larotinib mesylate, read-out: T1/2, mean (min–max) (converted)) of the same compound?
Answer: 43.9 h

Question: And the Tmax (100 mg, single oral administration, 100 mg larotinib mesylate, read-out: Tmax, median (min–max))?
Answer: 5 h

Question: And the Vd/F (100 mg, single oral administration, 100 mg larotinib mesylate, read-out: Vz/F, mean (min–max))?
Answer: 4580 L

Question: And the AUC(0-t) (150 mg, multiple oral administration, 150 mg larotinib mesylate, steady state, read-out: AUC0-t,ss, mean (min–max))?
Answer: 18200 ng·h/mL

Question: What about the AUC(0-inf) (150 mg, multiple oral administration, 150 mg larotinib mesylate, steady state, read-out: AUC0-∞,ss, mean (min–max)) of the same compound?
Answer: 24600 ng·h/mL

Question: What about the Cmax (150 mg, multiple oral administration, 150 mg larotinib mesylate, steady state, read-out: Cmax,ss, mean (min–max)) of the same compound?
Answer: 371 ng/mL

Question: What about the half-life (150 mg, multiple oral administration, 150 mg larotinib mesylate, steady state, read-out: T1/2,ss, mean (min–max) (converted)) of the same compound?
Answer: 61.2 h

Question: What about the Tmax (150 mg, multiple oral administration, 150 mg larotinib mesylate, steady state, read-out: Tmax,ss, median (min–max)) of the same compound?
Answer: 5 h

Question: And the Vd/F (150 mg, multiple oral administration, 150 mg larotinib mesylate, steady state, read-out: Vz/F,ss, mean (min–max))?
Answer: 564 L

Question: What about the AUC(0-t) (150 mg, single oral administration, 150 mg larotinib mesylate, read-out: AUC0-24, mean (min–max)) of the same compound?
Answer: 1990 ng·h/mL

Question: What about the AUC(0-t) (150 mg, single oral administration, 150 mg larotinib mesylate, read-out: AUC0-t, mean (min–max)) of the same compound?
Answer: 4780 ng·h/mL

Question: What about the AUC(0-inf) (150 mg, single oral administration, 150 mg larotinib mesylate, read-out: AUC0-∞, mean (min–max)) of the same compound?
Answer: 5660 ng·h/mL

Question: And the Cmax (150 mg, single oral administration, 150 mg larotinib mesylate, read-out: Cmax, mean (min–max))?
Answer: 150 ng/mL

Question: And the half-life (150 mg, single oral administration, 150 mg larotinib mesylate, read-out: T1/2, mean (min–max) (converted))?
Answer: 39.3 h

Question: And the Tmax (150 mg, single oral administration, 150 mg larotinib mesylate, read-out: Tmax, median (min–max))?
Answer: 5 h

Question: What about the Vd/F (150 mg, single oral administration, 150 mg larotinib mesylate, read-out: Vz/F, mean (min–max)) of the same compound?
Answer: 1650 L

Question: What about the AUC(0-t) (220 mg, multiple oral administration, 220 mg larotinib mesylate, steady state, read-out: AUC0-t,ss, mean (min–max)) of the same compound?
Answer: 30200 ng·h/mL

Question: What about the AUC(0-inf) (220 mg, multiple oral administration, 220 mg larotinib mesylate, steady state, read-out: AUC0-∞,ss, mean (min–max)) of the same compound?
Answer: 43600 ng·h/mL

Question: And the Cmax (220 mg, multiple oral administration, 220 mg larotinib mesylate, steady state, read-out: Cmax,ss, mean (min–max))?
Answer: 553 ng/mL

Question: What about the half-life (220 mg, multiple oral administration, 220 mg larotinib mesylate, steady state, read-out: T1/2,ss, mean (min–max) (converted)) of the same compound?
Answer: 75.7 h

Question: What about the Tmax (220 mg, multiple oral administration, 220 mg larotinib mesylate, steady state, read-out: Tmax,ss, median (min–max)) of the same compound?
Answer: 6 h

Question: What about the Vd/F (220 mg, multiple oral administration, 220 mg larotinib mesylate, steady state, read-out: Vz/F,ss, mean (min–max)) of the same compound?
Answer: 553 L

Question: What about the AUC(0-t) (220 mg, single oral administration, 220 mg larotinib mesylate, read-out: AUC0-24, mean (min–max)) of the same compound?
Answer: 3100 ng·h/mL

Question: And the AUC(0-t) (220 mg, single oral administration, 220 mg larotinib mesylate, read-out: AUC0-t, mean (min–max))?
Answer: 6360 ng·h/mL

Question: And the AUC(0-inf) (220 mg, single oral administration, 220 mg larotinib mesylate, read-out: AUC0-∞, mean (min–max))?
Answer: 8090 ng·h/mL

Question: And the Cmax (220 mg, single oral administration, 220 mg larotinib mesylate, read-out: Cmax, mean (min–max))?
Answer: 278 ng/mL

Question: And the half-life (220 mg, single oral administration, 220 mg larotinib mesylate, read-out: T1/2, mean (min–max) (converted))?
Answer: 68.2 h

Question: What about the Tmax (220 mg, single oral administration, 220 mg larotinib mesylate, read-out: Tmax, median (min–max)) of the same compound?
Answer: 5 h

Question: What about the Vd/F (220 mg, single oral administration, 220 mg larotinib mesylate, read-out: Vz/F, mean (min–max)) of the same compound?
Answer: 2720 L

Question: And the AUC(0-t) (300 mg, multiple oral administration, 300 mg larotinib mesylate, steady state, read-out: AUC0-t,ss, mean (min–max))?
Answer: 17900 ng·h/mL

Question: And the AUC(0-inf) (300 mg, multiple oral administration, 300 mg larotinib mesylate, steady state, read-out: AUC0-∞,ss, mean (min–max))?
Answer: 22600 ng·h/mL

Question: What about the Cmax (300 mg, multiple oral administration, 300 mg larotinib mesylate, steady state, read-out: Cmax,ss, mean (min–max)) of the same compound?
Answer: 438 ng/mL

Question: And the half-life (300 mg, multiple oral administration, 300 mg larotinib mesylate, steady state, read-out: T1/2,ss, mean (min–max) (converted))?
Answer: 54.3 h
